Data set [1] relates to [^3 H]-GABA uptake. The data set is described as follows: Inhibition of [^3 H]-GABA uptake in vitro (Male Wistar rat cortical tissue homogenate). The format is biochemical. Particulars: tris HCl buffer pH 7.5, 60 min at 30° C. How it is done: Values for in vitro inhibition of [^3 H]-GABA uptake for these compounds were assessed essentially by the method of Fjalland (Acta Pharmacol.Toxicol. 42 (1978) 73-76). Male Wistar rat cortical tissue was gently homogenized by hand using a glass/PTFE homogenizer in 10 volumes of 0.32 M sucrose. Incubation was performed in a 40 mM tris HCl buffer (pH 7.5 at 30° C.) containing […], […], 4 mM MgSO4, 2.3 mM CaCl2 and 10 mM glucose, for 60 min. at 30° C.) Values for inhibition of GABA uptake for some representative compounds are recorded in Table I.

For data set [2], the system named is GABA uptake. Particulars: cited from earlier work; for inhibition of GABA uptake, oral activity: Yunger, L. M. et al., J. Pharm. Exp. Therap. 228 (1984) 109.
For data set [3] the following is noted: background art; cited from earlier work.

Structures can show the parent of a compound that is named as a salt.

Broadly, the IC50 is the concentration that inhibits the measured activity by half. Lower therefore signals higher potency.

Molecule `O=C(O)[C@@H]1CCCN(CCOCCN(c2ccccc2)c2ccccc2)C1` [Example 2, (R)-N-(2-(2-(Diphenylamino)ethoxy)ethyl)-3-piperidinecarboxylic acid hydrochloride] displayed an IC50 in data set [1] of 108 nM.
Consider `O=C(O)[C@@H]1CCCN(CCCCCCN(c2ccccc2)c2ccccc2)C1` [Example 4, (R)-N-(6-(Diphenylamino)-1-hexyl)-3-piperidinecarboxylic acid hydrochloride], for which the IC50 in data set [1] came to 670 nM.
On the same count and under the same terms, with `O=C(O)[C@@H]1CCCN(CCCCCCCN(c2ccccc2)c2ccccc2)C1` [Example 8, (R)-N-(7-(Diphenylamino)-1-heptyl)-3-piperidinecarboxylic acid hydrochloride] the figure was 222 nM; with `O=C(O)[C@@H]1CCCN(CCOCCC(c2ccccc2)c2ccccc2)C1` [Example 14, (R)-N-(2-(3,3-Diphenyl-1-propyloxy)ethyl)-3-piperidinecarboxylic acid hydrochloride], 51 nM; with `O=C(O)C1=CCCN(CCOCCC(c2ccccc2)c2ccccc2)C1` [Example 16, N-(2-(3,3-Diphenyl-1-propyloxy)ethyl)-1,2,5,6-tetrahydro-3-pyridinecarboxylic acid hydrochloride], 49 nM.
On the same count and under the same terms, as for `O=C(O)[C@@H]1CCCN(CCOCCC(c2ccccc2)c2cccc(C(F)(F)F)c2)C1` (stereo partly drawn) [Example 18, (R)-N-(2-(3-Phenyl-3-(3-(trifluoromethyl)phenyl)-1-propyloxy)ethyl)-3-piperidinecarboxylic acid hydrochloride], the figure is 43 nM.
Regarding `O=C(O)C1CCCN(CCC=C(c2ccccc2)c2ccccc2)C1` (stereo not drawn) [SK&F 89976A, N-(4,4-diphenyl-3-buten-1-yl)nipecotic acid], in data set [2], the “inhibition of GABA uptake, oral activity” value is reported as “orally active inhibitors of GABA uptake”.
As for `O=C(O)C1=CCCN(CCC=C(c2ccccc2)c2ccccc2)C1` [SK&F 100330A, N-(4,4-diphenyl-3-buten-1-yl)guvacine], the “inhibition of GABA uptake, oral activity” value in data set [2] is “orally active inhibitors of GABA uptake”.
Consider `O=C(O)CC1CCN(CCC=C(c2ccccc2)c2ccccc2)C1` (stereo not drawn) [SK&F 100561, N-(4,4-diphenyl-3-buten-1-yl)homo-β-proline], for which the “inhibition of GABA uptake, oral activity” value in data set [2] is “orally active inhibitors of GABA uptake”.
Regarding `O=C(O)C1CCCN(CCC=C(c2ccccc2)c2cccs2)C1` (stereo not drawn) [SK&F 100604J, N-(4-phenyl-4-(2-thienyl)-3-buten-1-yl)nipecotic acid], the “inhibition of GABA uptake, oral activity” value in data set [2] is given as “orally active inhibitors of GABA uptake”.
On to `O=C(O)C1CCCNC1` (stereo not drawn) [nipecotic acid, piperidine-3-carboxylic acid], for which the “ability to cross the blood-brain barrier” value in data set [3] is “unable to cross the blood-brain barrier”. Besides, the “inhibitor of GABA uptake from the synaptic cleft into presynaptic nerve terminals and glial cells” value in data set [2] (background art) is “well-known and potent inhibitor of GABA uptake”.

These data come from patent publication US5198451A, “Heterocyclic carboxylic acids” (Novo Nordisk A/S, priority 1989, dated 1993).
